Reference: PubChem BioAssay AID1259407 (Chemical Carcinogenesis Research Information System (CCRIS), 2018)
The source made the active and inactive calls. The rule behind the calls is not given here.

System: CCRIS mutagenicity, Ames/micronucleus/aberration tests
Assay: CCRIS mutagenicity studies

## CCN(CC)N=O
Test System: AMES SALMONELLA TYPHIMURIUM, Strain/Indicator: TA2410, Metabolic Activation: NONE, Method: HOST-MEDIATED
  mutagenic call: active; positive
Test System: AMES SALMONELLA TYPHIMURIUM, Strain/Indicator: TA2678, Metabolic Activation: NONE, Method: HOST-MEDIATED
  mutagenic call: active; positive
Test System: AMES SALMONELLA TYPHIMURIUM, Strain/Indicator: YG1024, Metabolic Activation: NONE, Method: PREINCUBATION
  mutagenic call: inactive; negative
Test System: AMES SALMONELLA TYPHIMURIUM, Strain/Indicator: YG1024, Metabolic Activation: RAT LIVER S-9, AROCLOR, Method: PREINCUBATION
  mutagenic call: active; positive
Test System: AMES SALMONELLA TYPHIMURIUM, Strain/Indicator: YG7100, Metabolic Activation: S-9, Method: PREINCUBATION
  mutagenic call: inactive; negative
Test System: AMES SALMONELLA TYPHIMURIUM, Strain/Indicator: YG7104, Metabolic Activation: S-9, Method: PREINCUBATION
  mutagenic call: active; positive
Test System: AMES SALMONELLA TYPHIMURIUM, Strain/Indicator: YG7104ER, Metabolic Activation: NONE, Method: STANDARD PLATE
  mutagenic call: active; positive
Test System: AMES SALMONELLA TYPHIMURIUM, Strain/Indicator: YG7108-2A6-OR, Metabolic Activation: NONE, Method: PREINCUBATION
  mutagenic call: active; positive
Test System: AMES SALMONELLA TYPHIMURIUM, Strain/Indicator: YG7108-2A6, Metabolic Activation: NONE, Method: PREINCUBATION
  mutagenic call: active; positive
Test System: AMES SALMONELLA TYPHIMURIUM, Strain/Indicator: YG7108-PCW, Metabolic Activation: NONE, Method: PREINCUBATION
  mutagenic call: inactive; negative
Test System: AMES SALMONELLA TYPHIMURIUM, Strain/Indicator: YG7108, Metabolic Activation: RAT LIVER S-9, PHENOBARBITAL AND 5,6-BENZOFLAVONE, Method: PREINCUBATION
  mutagenic call: active; positive
Test System: AMES SALMONELLA TYPHIMURIUM, Strain/Indicator: YG7108, Metabolic Activation: S-9, Method: PREINCUBATION
  mutagenic call: active; positive
Test System: AMES SALMONELLA TYPHIMURIUM, Strain/Indicator: YG7108ER, Metabolic Activation: NONE, Method: STANDARD PLATE
  mutagenic call: active; positive
Test System: AMES SALMONELLA TYPHIMURIUM, Strain/Indicator: YG7112, Metabolic Activation: S-9, Method: PREINCUBATION
  mutagenic call: active; positive
Test System: AMES SALMONELLA TYPHIMURIUM, Strain/Indicator: YG7113, Metabolic Activation: S-9, Method: PREINCUBATION
  mutagenic call: active; positive
Test System: AMES SALMONELLA TYPHIMURIUM, Strain/Indicator: YG7119, Metabolic Activation: S-9, Method: PREINCUBATION
  mutagenic call: inactive; negative
Test System: Ames Salmonella typhimurium, Strain/Indicator: TA98, Metabolic Activation: None, Method: Preincubation
  mutagenic call: active; positive
Test System: Ames Salmonella typhimurium, Strain/Indicator: TA98, Metabolic Activation: Rat, Liver, S-9, Aroclor 1254 (4%), Method: Preincubation
  mutagenic call: active; positive
Test System: Ames Salmonella typhimurium, Strain/Indicator: TA98DNP6 (Acetyltransferase deficient), Metabolic Activation: None, Method: Preincubation
  mutagenic call: inactive; negative
Test System: Ames Salmonella typhimurium, Strain/Indicator: TA98DNP6 (Acetyltransferase deficient), Metabolic Activation: Rat, Liver, S-9, Aroclor 1254 (4%), Method: Preincubation
  mutagenic call: inactive; negative
Test System: Ames Salmonella typhimurium, Strain/Indicator: TA98NR, Metabolic Activation: None, Method: Preincubation
  mutagenic call: inactive; negative
Test System: Ames Salmonella typhimurium, Strain/Indicator: TA98NR, Metabolic Activation: Rat, Liver, S-9, Aroclor 1254 (4%), Method: Preincubation
  mutagenic call: inactive; negative
Test System: Ames Salmonella typhimurium, Strain/Indicator: YG1021, Metabolic Activation: None, Method: Preincubation
  mutagenic call: inactive; negative
Test System: Ames Salmonella typhimurium, Strain/Indicator: YG1021, Metabolic Activation: Rat, Liver, S-9, Aroclor 1254 (4%), Method: Preincubation
  mutagenic call: inactive; negative
Test System: Ames Salmonella typhimurium, Strain/Indicator: YG1024 (Acetyltransferase overproducing), Metabolic Activation: None, Method: Preincubation
  mutagenic call: inactive; negative
Test System: Ames Salmonella typhimurium, Strain/Indicator: YG1024 (Acetyltransferase overproducing), Metabolic Activation: Rat, Liver, S-9, Aroclor 1254 (4%), Method: Preincubation
  mutagenic call: active; positive
Test System: Ames Salmonella typhimurium, Strain/Indicator: YG1041 (Acetyltransferase and nitroreductase overproducing), Metabolic Activation: None, Method: Preincubation
  mutagenic call: inactive; negative
Test System: Ames Salmonella typhimurium, Strain/Indicator: YG1041 (Acetyltransferase and nitroreductase overproducing), Metabolic Activation: Rat, Liver, S-9, Aroclor 1254 (4%), Method: Preincubation
  mutagenic call: inactive; negative
Test System: Ames Salmonella typhimurium, Strain/Indicator: YG7108pin3ERb5, Metabolic Activation: None, Method: Standard plate
  mutagenic call: active; positive
Test System: CHINESE HAMSTER V-79, Strain/Indicator: V-79 (HPRT)/6-THIOGUANINE, Metabolic Activation: RAT, HEPATOCYTES
  mutagenic call: active; positive
Test System: CHINESE HAMSTER V-79, Strain/Indicator: V-79 (HPRT)/6-THIOGUANINE, Metabolic Activation: RAT, HEPATOMA, H4IIE CELLS
  mutagenic call: inactive; negative
Test System: CHINESE HAMSTER V-79, Strain/Indicator: V-79 (HPRT)/6-THIOGUANINE, Metabolic Activation: RAT, LIVER, S-9, AROCLOR 1254
  mutagenic call: active; positive
Test System: CHINESE HAMSTER V-79, Strain/Indicator: V-79/8-AZAGUANINE, Metabolic Activation: RAT, LIVER, S-15, PHENOBARBITAL, Method: STANDARD PLATE
  mutagenic call: active; positive
Test System: CHINESE HAMSTER V-79, Strain/Indicator: V-79/OUABAIN, Metabolic Activation: CELL-MEDIATED, Method: STANDARD PLATE
  mutagenic call: active; positive
Test System: CHINESE HAMSTER V-79, Strain/Indicator: V-79/OUABAIN, Metabolic Activation: HAMSTER, HEPATOCYTES, Method: CELL-MEDIATED
  mutagenic call: active; positive
Test System: E. COLI, Strain/Indicator: WP2 (HCR-), Metabolic Activation: RAT, LIVER, MICROSOMES, PHENOBARBITAL
  mutagenic call: active; positive
Test System: E. COLI, Strain/Indicator: WP2 UVRA, Metabolic Activation: HAMSTER, LIVER, S-9, AROCLOR 1254, Method: PREINCUBATION
  mutagenic call: active; positive
Test System: E. COLI, Strain/Indicator: WP2 UVRA, Metabolic Activation: HAMSTER, LIVER, S-9, AROCLOR 1254, Method: STANDARD PLATE
  mutagenic call: inactive; negative
Test System: E. COLI, Strain/Indicator: WP2 UVRA, Metabolic Activation: HAMSTER, LIVER, S-9, Method: PREINCUBATION
  mutagenic call: active; positive
Test System: E. COLI, Strain/Indicator: WP2 UVRA, Metabolic Activation: HAMSTER, LIVER, S-9, Method: STANDARD PLATE
  mutagenic call: inactive; negative
Test System: E. COLI, Strain/Indicator: WP2 UVRA, Metabolic Activation: MOUSE, LIVER, S-9, AROCLOR 1254, Method: STANDARD PLATE
  mutagenic call: inactive; negative
Test System: E. COLI, Strain/Indicator: WP2 UVRA, Metabolic Activation: MOUSE, LIVER, S-9, Method: STANDARD PLATE
  mutagenic call: inactive; negative
Test System: E. COLI, Strain/Indicator: WP2 UVRA, Metabolic Activation: NONE, Method: STANDARD PLATE
  mutagenic call: inactive; negative
Test System: E. COLI, Strain/Indicator: WP2 UVRA, Metabolic Activation: RAT, LIVER, S-9, Method: PREINCUBATION
  mutagenic call: inactive; negative
Test System: E. COLI, Strain/Indicator: WP2 UVRA, Metabolic Activation: RAT, LIVER, S-9, Method: STANDARD PLATE
  mutagenic call: inactive; negative
Test System: MOUSE LYMPHOMA, Strain/Indicator: L5178Y (TK+/TK-), Metabolic Activation: RAT, LIVER, S-9, AROCLOR 1254, Method: SUSPENSION/PLATE
  mutagenic call: active; positive
Test System: UDS RAT HEPATOCYTES, Strain/Indicator: THY INCORP, Metabolic Activation: NONE, Method: LIQUID SCINTILLATION COUNTING
  mutagenic call: active; positive
Test System: UDS RODENT HEPATOCYTES, Strain/Indicator: THY INCORP (NON-S-PHASE), Method: AUTORADIOGRAPHY
  mutagenic call: active; positive
